Measurements from patent publication US20120115878A1, “SALT(S) OF 7-CYCLOPENTYL-2-(5-PIPERAZIN-1-YL-PYRIDIN-2-YLAMINO)-7H-PYRROLO[2,3-D]PYRIMIDINE-6-CARBOXYLIC ACID DIMETHYLAMIDE AND PROCESSES OF MAKING THEREOF” (priority 2010, published 2012).

What was measured:
[1] = Dynamic Vapor Sorption (DVS) isotherm, 0-90-0% RH cycle, two cycles; format: physicochemical
[2] = Dynamic Vapor Sorption (DVS) isotherm, 0-80-0% RH cycle; format: physicochemical; details: for Change In Mass (%) Desorption / Change In Mass (%) Hysteresis: 0-80-0% RH cycle, Cycle 1
[3] = Physical form characterization (XRPD, DSC, TGA) after DVS exposure to 90% RH; format: physicochemical
[4] = Physical form characterization (XRPD) after DVS exposure to 80% RH

## CN(C)C(=O)c1cc2cnc(Nc3ccc(N4CCNCC4)cn3)nc2n1C1CCCC1.O=C(O)CCC(=O)O [Compound of Formula (II), 7-Cyclopentyl-N,N-dimethyl-2-(5-(piperazin-1-yl)pyridin-2-ylamino)-7H-pyrrolo[2,3-d]pyrimidine-6-carboxamide succinate]
[1]; at 90% RH in each cycle (0 to 90 to 0% RH)
  moisture absorbed: up to 2%
[1]; at high humidity conditions (90% RH)
  hygroscopic behavior: slight hygroscopic behavior
[2]; target RH 0.0%
  Change In Mass (%) Desorption: 0.0434%
[2]; target RH 10.0%
  Change In Mass (%) Desorption: 0.2958%
  Change In Mass (%) Hysteresis: 0.0871%
[2]; target RH 20.0%
  Change In Mass (%) Desorption: 0.3436%
  Change In Mass (%) Hysteresis: 0.0708%
[2]; target RH 30.0%
  Change In Mass (%) Desorption: 0.3806%
[2]; target RH 40.0%
  Change In Mass (%) Desorption: 0.4037%
  Change In Mass (%) Hysteresis: 0.0133%
[2]; target RH 50.0%
  Change In Mass (%) Desorption: 0.4311%
  Change In Mass (%) Hysteresis: 0.0074%
[2]; target RH 60.0%
  Change In Mass (%) Desorption: 0.4614%
  Change In Mass (%) Hysteresis: 0.0140%
[2]; target RH 70.0%
  Change In Mass (%) Desorption: 0.4952%
  Change In Mass (%) Hysteresis: 0.0159%
[2]; target RH 80.0%
  Change In Mass (%) Desorption: 0.5200%
[2]; at 80% RH (0 to 80 to 0% RH)
  moisture absorbed: up to 0.5%
[2]; printed 'at 80° C.' (0 to 80 to 0% RH cycle)
  hygroscopic behavior: nearly non-hygroscopic behavior
[3]; XRPD, DSC, TGA after DVS 0-90-0% RH
  physical form upon exposure to 90% RH: change in physical form
[3]; around 100° C., after exposure to 90% RH
  weight loss at endothermic transition: 3%
[3]; at 90% RH
  converted from the non-hydrate form to hydrate form: about 7.35%
[4]; XRPD after DVS 0-80-0% RH
  physical form upon exposure to 80% RH: stability of the physical form
[4]; at 80% RH
  converted from the non-hydrate form to hydrate form: about 0.52%

## CN(C)C(=O)c1cc2cnc(Nc3ccc(N4CCNCC4)cn3)nc2n1C1CCCC1.O=C(O)CCC(=O)O [non-hydrate form, succinate salt of 7-Cyclopentyl-2-(5-piperazin-1-yl-pyridin-2-ylamino)-7H-pyrrolo[2,3-d]pyrimidine-6-carboxylic acid dimethylamide]
[2]; general statement
  hygroscopicity: non-hygroscopicity
[4]; general statement
  stability: good stability
